Source: patent US20100249082A1, “MODULATORS OF HYPOXIA INDUCIBLE FACTOR-1 AND RELATED USES” (Bionaut Pharmaceuticals INC., priority 2007, published 2010)

Legend:
[1] = in vivo; cited from earlier work
Na^+, K^+-ATPase [2] = molecular target: Na^+, K^+-ATPase (Cricetulus griseus, UniProt A0A8C2N4Z0); test: cell-based; settings: for inhibition at 0.5 µM / inhibition at 1 µM / inhibition at 5 µM / inhibition at 10 µM / inhibition at 50 µM / inhibition at 100 µM / inhibition at 200 µM / inhibition at 500 µM: CHO-K1; for remaining activity at 0.5 µM / remaining activity at 1 µM / remaining activity at 5 µM / remaining activity at 10 µM / remaining activity at 50 µM / remaining activity at 100 µM / remaining activity at 200 µM / remaining activity at 500 µM: CHO-K1, 0.5 h, read-out: Normalized Uptake (%)
Method: (§1) Compounds were screened using Ion Channel Research (ICR) technology and a non-radioactive Rubidium Uptake Assay
(§2) For all the test compounds and standard blockers, 100× solutions were used to prepare 1× test doses for Na^+, K^+-ATPase screen in CHO cell line. The final DMSO concentration in each well was 1%.
(§3) • 1. […] Rb^+ Uptake: Cells were washed with 200 μl of Rb^+ Uptake Buffer once and R^+ loaded by application of 198 μl R^+ Uptake Buffer. Compounds were added at 2 μl/well of a 100× stock solution in 100% DMSO in the uptake buffer followed by incubation for 30 minutes at room temperature (c. 22° C.). The total volume in each well was 200 μl (198 μl of R^+ Uptake Buffer and 2 μl of the 100× compound). The 100× compound solution gets diluted in R^+ Uptake Buffer to 1× and the DMSO to 1%. • 3. Wash: Residual R^+ and compound were removed by four successive washes with 200 μl of SPA-Wash Buffer. • 4. Cell Lysis: Intracellular samples were obtained by whole cell lysis with the application of 200 μl Lysis Solution. • 5. Analysis: The level of R^+ in the intracellular samples was measured by ICR8000 (Aurora Biomed Inc., Vancouver, Canada). using flame atomic absorption spectroscopy.

Na^+, K^+-ATPase [3] = test: cell-based; settings: for Sample Solubility: CHO-K1 screen test wells, 1% DMSO; for Inhibition (%) / Normalized Uptake (%): CHO-K1
Method: as §1, §2, §3

Na^+, K^+-ATPase [4] = molecular target: T1, Na^+, K^+-ATPase (Homo sapiens, UniProt P05023); test: cell-based; settings: for inhibition at 0.01 µM / inhibition at 0.1 µM / inhibition at 1 µM / inhibition at 5 µM / inhibition at 10 µM / inhibition at 50 µM: HEK293, HEK-293; for inhibition at 0.01 µM: Log[drug](M) −8.0; for inhibition at 5 µM: Log[drug](M) −5.3; for inhibition at 10 µM: Log[drug](M) −5.0; for inhibition at 50 µM: Log[drug](M) −4.3; for Rank order: HEK-293, ranked on potency (IC50 value); for Sample Solubility: HEK-293 screen test wells, 1% DMSO
T1 construct: The HEK-293 cell line endogenously expressing Na^+, K^+-ATPase; endogenous in cells; host or cells: HEK-293
Method: Cells were plated at a density of 50,000 cells/well in 96-well microplates and incubated at 37° C., 5% CO2 until 80-90% confluency was attained

SMILES | IC50 (Na^+, K^+-ATPase [2]) | inhibition at 0.5 µM (Na^+, K^+-ATPase [2]) | remaining activity at 0.5 µM (Na^+, K^+-ATPase [2]) | Sample Solubility (Na^+, K^+-ATPase [3]) | IC50 (Na^+, K^+-ATPase [4]) | inhibition at 0.01 µM (Na^+, K^+-ATPase [4]) | inhibition at 0.1 µM (Na^+, K^+-ATPase [4]; Log[drug](M) −7.0) | inhibition at 0.1 µM (Na^+, K^+-ATPase [4]; Log[drug](M) −7.3) | inhibition at 1 µM (Na^+, K^+-ATPase [4]; Log[drug](M) −6.0) | inhibition at 1 µM (Na^+, K^+-ATPase [4]; Log[drug](M) −6.3) | inhibition at 5 µM (Na^+, K^+-ATPase [4]) | inhibition at 10 µM (Na^+, K^+-ATPase [4]) | inhibition at 50 µM (Na^+, K^+-ATPase [4]) | Rank order (Na^+, K^+-ATPase [4]) | Sample Solubility (Na^+, K^+-ATPase [4]) | Inhibition (%) (Na^+, K^+-ATPase [3]; dose 1.0 uM) | Normalized Uptake (%) (Na^+, K^+-ATPase [3]; dose 1.0 uM) | Inhibition (%) (Na^+, K^+-ATPase [3]; dose 5.0 uM) | Normalized Uptake (%) (Na^+, K^+-ATPase [3]; dose 5.0 uM) | Inhibition (%) (Na^+, K^+-ATPase [3]; dose 10 uM) | also measured
C[C@@H]1O[C@@H](O[C@H]2C[C@@H](O)[C@]3(CO)[C@H]4[C@H](O)C[C@]5(C)[C@@H](C6=CC(=O)OC6)CC[C@]5(O)[C@@H]4CC[C@]3(O)C2)[C@H](O)[C@H](O)[C@H]1O [BNC1, ouabain] |  |  |  |  |  |  |  |  |  |  |  |  |  |  |  |  |  |  |  |  | max. plasma concentration [1]: about 0.03 μg/mL
C[C@]12CCC(=NOCCN3CCOCC3)C=C1CCC1C2CC[C@]2(C)[C@@H](c3ccc(=O)oc3)CC[C@]12O (stereo partly shown) [BP245, 3-[2-(Morpholinoethoxy)imino]-scillarinone] | 93.2 µM | 0% | 98.9% | Good | 0.732 µM | 0% | 22.1% | 8.3% | 56% | 36% | 92.3% | 94.1% | 100% | 2 | Good |  |  |  |  |  | inhibition at 1 µM (Na^+, K^+-ATPase [2]): 2.9%; inhibition at 5 µM (Na^+, K^+-ATPase [2]): 4.2%; inhibition at 10 µM (Na^+, K^+-ATPase [2]): 6.6%; inhibition at 50 µM (Na^+, K^+-ATPase [2]): 23.7%; inhibition at 100 µM (Na^+, K^+-ATPase [2]): 44.9%; inhibition at 200 µM (Na^+, K^+-ATPase [2]): 86.5%; inhibition at 500 µM (Na^+, K^+-ATPase [2]): 100%; remaining activity at 1 µM (Na^+, K^+-ATPase [2]): 96.9%; remaining activity at 5 µM (Na^+, K^+-ATPase [2]): 96%; remaining activity at 10 µM (Na^+, K^+-ATPase [2]): 94.3%; remaining activity at 50 µM (Na^+, K^+-ATPase [2]): 82.4%; remaining activity at 100 µM (Na^+, K^+-ATPase [2]): 67.6%; remaining activity at 200 µM (Na^+, K^+-ATPase [2]): 38.7%; remaining activity at 500 µM (Na^+, K^+-ATPase [2]): 29.3%
C[C@]12CCC(=NOCCCN3CCCCC3)C=C1CCC1C2CC[C@]2(C)[C@@H](c3ccc(=O)oc3)CC[C@]12O (stereo partly shown) [BP246, 3-[3-(Piperidinopropoxy)imino]-scillarinone] | 57.8 µM | 0% | 95.3% | Good | 0.335 µM | 0% | 28.5% | 13.9% | 79.1% | 48.5% | 96.3% | 96.1% | 100% | 1 | Good |  |  |  |  |  | inhibition at 1 µM (Na^+, K^+-ATPase [2]): 2.2%; inhibition at 5 µM (Na^+, K^+-ATPase [2]): 12%; inhibition at 10 µM (Na^+, K^+-ATPase [2]): 21.5%; inhibition at 50 µM (Na^+, K^+-ATPase [2]): 42%; inhibition at 100 µM (Na^+, K^+-ATPase [2]): 64.7%; inhibition at 200 µM (Na^+, K^+-ATPase [2]): 89.3%; inhibition at 500 µM (Na^+, K^+-ATPase [2]): 100%; remaining activity at 1 µM (Na^+, K^+-ATPase [2]): 93.4%; remaining activity at 5 µM (Na^+, K^+-ATPase [2]): 84.8%; remaining activity at 10 µM (Na^+, K^+-ATPase [2]): 76.6%; remaining activity at 50 µM (Na^+, K^+-ATPase [2]): 58.7%; remaining activity at 100 µM (Na^+, K^+-ATPase [2]): 39%; remaining activity at 200 µM (Na^+, K^+-ATPase [2]): 17.5%; remaining activity at 500 µM (Na^+, K^+-ATPase [2]): 8.2%
C[C@]12CCC(=NOCCCCN3CCCCC3)C=C1CCC1C2CC[C@]2(C)[C@@H](c3ccc(=O)oc3)CC[C@]12O (stereo partly shown) [BP247, 3-[4-(Piperidinobutoxy)imino]-scillarinone] | 47.4 µM | 0% | 96% | Good | 0.183 µM | 0% | 44.9% | 17.1% | 79.9% | 68.4% | 94.8% | 93.5% | 100% | 1 | Good | −0.3% | 96.2% | 9.2% | 88.2% | 15.2% | Normalized Uptake (%) (Na^+, K^+-ATPase [3]; dose 10 uM): 83.2%; Inhibition (%) (Na^+, K^+-ATPase [3]; dose 50 uM): 44.9%; Normalized Uptake (%) (Na^+, K^+-ATPase [3]; dose 50 uM): 58.3%; Inhibition (%) (Na^+, K^+-ATPase [3]; dose 100 uM): 67.7%; Normalized Uptake (%) (Na^+, K^+-ATPase [3]; dose 100 uM): 39.0%; Inhibition (%) (Na^+, K^+-ATPase [3]; dose 200 uM): 89.0%; Normalized Uptake (%) (Na^+, K^+-ATPase [3]; dose 200 uM): 21.1%; Inhibition (%) (Na^+, K^+-ATPase [3]; dose 500 uM): 100.0%; Normalized Uptake (%) (Na^+, K^+-ATPase [3]; dose 500 uM): 11.9%
C[C@]12CCC(=NOCCCCCN3CCCCC3)C=C1CCC1C2CC[C@]2(C)[C@@H](c3ccc(=O)oc3)CC[C@]12O (stereo partly shown) [BP248, 3-[5-(Piperidinopentoxy)imino]-scillarinone] | 27.9 µM |  |  | Good | 5.55 µM | 0% | 1.7% | 0.8% | 10.1% | 4.5% | 44.7% | 74% | 100% | 4 | Good | 0.0% | 105.6% | 9.1% | 96.6% | 27.0% | Inhibition (%) (Na^+, K^+-ATPase [3]; dose 0.50 uM): 1.3%; Normalized Uptake (%) (Na^+, K^+-ATPase [3]; dose 0.50 uM): 104.5%; Normalized Uptake (%) (Na^+, K^+-ATPase [3]; dose 10 uM): 81.1%; Inhibition (%) (Na^+, K^+-ATPase [3]; dose 50 uM): 61.2%; Normalized Uptake (%) (Na^+, K^+-ATPase [3]; dose 50 uM): 51.5%; Inhibition (%) (Na^+, K^+-ATPase [3]; dose 100 uM): 84.1%; Normalized Uptake (%) (Na^+, K^+-ATPase [3]; dose 100 uM): 31.6%; Inhibition (%) (Na^+, K^+-ATPase [3]; dose 200 uM): 94.0%; Normalized Uptake (%) (Na^+, K^+-ATPase [3]; dose 200 uM): 23.1%; Inhibition (%) (Na^+, K^+-ATPase [3]; dose 500 uM): 100.0%; Normalized Uptake (%) (Na^+, K^+-ATPase [3]; dose 500 uM): 17.9%
C[C@H]1O[C@@H](O[C@H]2[C@@H](O)C[C@H](O[C@H]3[C@@H](O)C[C@H](O[C@H]4CC[C@@]5(C)[C@H](CC[C@@H]6[C@@H]5CC[C@]5(C)[C@@H](C7=CC(=O)OC7)CC[C@]65O)C4)O[C@@H]3C)O[C@@H]2C)C[C@H](O)[C@@H]1O [Digitoxin, reference compound] | 44.9 µM |  |  |  | 1.1 µM |  |  |  |  |  |  |  |  | 2 |  | 6.2% | 93.8% | 8.6% | 91.4% | 19.8% | Inhibition (%) (Na^+, K^+-ATPase [3]; dose 0.50 uM): 0.0%; Normalized Uptake (%) (Na^+, K^+-ATPase [3]; dose 0.50 uM): 100.0%; Normalized Uptake (%) (Na^+, K^+-ATPase [3]; dose 10 uM): 80.2%; Inhibition (%) (Na^+, K^+-ATPase [3]; dose 50 uM): 51.9%; Normalized Uptake (%) (Na^+, K^+-ATPase [3]; dose 50 uM): 48.1%; Inhibition (%) (Na^+, K^+-ATPase [3]; dose 100 uM): 76.8%; Normalized Uptake (%) (Na^+, K^+-ATPase [3]; dose 100 uM): 23.2%; Inhibition (%) (Na^+, K^+-ATPase [3]; dose 500 uM): 89.7%; Normalized Uptake (%) (Na^+, K^+-ATPase [3]; dose 500 uM): 10.3%; Inhibition (%) (Na^+, K^+-ATPase [3]; dose 1000 uM): 100.0%; Normalized Uptake (%) (Na^+, K^+-ATPase [3]; dose 1000 uM): 0.0%
